Source: US20110136801A1, “Novel Compounds” (Dainippon Sumitomo Pharma Co. Ltd., priority 2009, published 2011)
pEC50: −log10 of the molar value.

Target: T1, human TLR7 (Homo sapiens, UniProt Q9NYK1)
T1 construct: expressed in transfected cells; host or cells: HEK293 cell line stably expressing the pNiFty2-SEAP reporter plasmid; TLR7 in pUNO vector, blasticidin selection
T1 sequence (Q9NYK1 27-1049): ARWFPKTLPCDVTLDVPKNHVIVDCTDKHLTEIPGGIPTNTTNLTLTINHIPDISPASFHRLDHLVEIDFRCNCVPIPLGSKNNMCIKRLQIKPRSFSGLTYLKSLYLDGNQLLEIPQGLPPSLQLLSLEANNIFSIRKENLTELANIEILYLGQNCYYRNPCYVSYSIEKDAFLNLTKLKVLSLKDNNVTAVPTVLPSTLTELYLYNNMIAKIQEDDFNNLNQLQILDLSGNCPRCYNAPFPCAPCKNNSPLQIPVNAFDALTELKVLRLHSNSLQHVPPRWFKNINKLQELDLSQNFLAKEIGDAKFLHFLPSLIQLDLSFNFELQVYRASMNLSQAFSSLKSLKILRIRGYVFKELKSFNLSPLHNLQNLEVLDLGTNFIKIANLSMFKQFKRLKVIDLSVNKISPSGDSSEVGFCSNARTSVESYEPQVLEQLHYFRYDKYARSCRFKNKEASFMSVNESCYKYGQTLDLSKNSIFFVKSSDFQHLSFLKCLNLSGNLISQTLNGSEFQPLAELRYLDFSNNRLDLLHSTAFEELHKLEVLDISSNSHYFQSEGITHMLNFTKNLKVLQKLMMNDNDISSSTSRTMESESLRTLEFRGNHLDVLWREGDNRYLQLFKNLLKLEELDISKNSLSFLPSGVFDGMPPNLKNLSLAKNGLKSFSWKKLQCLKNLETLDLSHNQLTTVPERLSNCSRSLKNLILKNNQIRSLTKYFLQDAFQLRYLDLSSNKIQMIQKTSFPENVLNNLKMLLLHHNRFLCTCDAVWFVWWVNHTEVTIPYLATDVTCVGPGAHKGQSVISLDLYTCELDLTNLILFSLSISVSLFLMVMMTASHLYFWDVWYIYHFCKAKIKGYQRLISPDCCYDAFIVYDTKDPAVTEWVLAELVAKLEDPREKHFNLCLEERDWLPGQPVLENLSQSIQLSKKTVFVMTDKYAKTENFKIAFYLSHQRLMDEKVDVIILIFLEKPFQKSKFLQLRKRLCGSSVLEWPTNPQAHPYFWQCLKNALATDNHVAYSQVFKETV
Experiment: Human TLR7 Assay (SEAP reporter in HEK293 cells);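 note: Read-out is secreted alkaline phosphatase made under an NFkB/ELAM-1 composite promoter, reporting TLR7-triggered NFkB activation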
Assay type: cell-based
Settings: HEK293 cell line expressing human TLR7 and pNiFty2-SEAP reporter, overnight incubation at 37° C., 0.1% DMSO; read-out: hTLR7 EC50

pEC50	Compound
7.02	CCOC(=O)COc1cccc(CN(CCCn2c(CCOC)nc3c(N)nc4ccccc4c32)C(=O)CN(CC)CC)c1OC [Example 89, Ethyl 2-{3-[(N-{3-[4-amino-2-(2-methoxyethyl)-1H-imidazo[4,5-c]quinolin-1-yl]propyl}-2-{diethylamino}acetamido)methyl]-2-methoxyphenoxy}acetate]
7.09	CCN(CC)CC(=O)N(CCCn1c(CCOC)nc2c(N)nc3ccccc3c21)Cc1cccc(OCC(=O)OC(C)C)c1OC [Example 90, Isopropyl 2-{3-[(N-{3-[4-amino-2-(2-methoxyethyl)-1H-imidazo[4,5-c]quinolin-1-yl]propyl}-2-{diethylamino}acetamido)methyl]-2-methoxyphenoxy}acetate]
7.13	CCOC(=O)COc1cccc(CN(CCCn2c(CCOC)nc3c(N)nc4ccccc4c32)C(=O)CN(CC)CC)c1F [Example 93, Ethyl 2-{3-[(N-{3-[4-amino-2-(2-methoxyethyl)-1H-imidazo[4,5-c]quinolin-1-yl]propyl}-2-{diethylamino}acetamido)methyl]-2-fluorophenoxy}acetate]
6.35	CCOC(=O)COc1cccc(CN(CCCn2c(CCOC)nc3c(N)nc4ccccc4c32)C(=O)CN(C)C)c1F [Example 95, Ethyl 2-{3-[(N-{3-[4-amino-2-(2-methoxyethyl)-1H-imidazo[4,5-c]quinolin-1-yl]propyl}-2-{dimethylamino}acetamido)methyl]-2-fluorophenoxy}acetate]
6.52	COCCc1nc2c(N)nc3ccccc3c2n1CCCN(Cc1cccc(OCC(=O)OC(C)C)c1F)C(=O)CN(C)C [Example 96, Isopropyl 2-{3-[(N-{3-[4-amino-2-(2-methoxyethyl)-1H-imidazo[4,5-c]quinolin-1-yl]propyl}-2-{dimethylamino}acetamido)methyl]-2-fluorophenoxy}acetate]
6.59	CCOC(=O)COc1cccc(CN(CCCn2c(CCOC)nc3c(N)nc4ccccc4c32)C(=O)CN(C)CC)c1F [Example 97, Ethyl 2-{3-[(N-{3-[4-amino-2-(2-methoxyethyl)-1H-imidazo[4,5-c]quinolin-1-yl]propyl}-2-{ethyl(methyl)amino}acetamido)methyl]-2-fluorophenoxy}acetate]
6.64	CCN(C)CC(=O)N(CCCn1c(CCOC)nc2c(N)nc3ccccc3c21)Cc1cccc(OCC(=O)OC(C)C)c1F [Example 98, Isopropyl 2-{3-[(N-{3-[4-amino-2-(2-methoxyethyl)-1H-imidazo[4,5-c]quinolin-1-yl]propyl}-2-{ethyl(methyl)amino}acetamido)methyl]-2-fluorophenoxy}acetate]
< 5.00	CCOC(=O)COc1cccc(CN(CCn2c(CCOC)nc3c(N)nc4ccccc4c32)C(=O)CN(CC)CC)c1 [Example 101, Ethyl 2-{3-[(N-{2-[4-amino-2-(2-methoxyethyl)-1H-imidazo[4,5-c]quinolin-1-yl]ethyl}-2-{diethylamino}acetamido)methyl]phenoxy}acetate]
< 5.00	CCN(CC)CC(=O)N(CCn1c(CCOC)nc2c(N)nc3ccccc3c21)Cc1cccc(OCC(=O)OC)c1 [Example 102, Methyl 2-{3-[(N-{2-[4-amino-2-(2-methoxyethyl)-1H-imidazo[4,5-c]quinolin-1-yl]ethyl}-2-{diethylamino}acetamido)methyl]phenoxy}acetate]
< 5.00	CCN(CC)CC(=O)N(CCn1c(CCOC)nc2c(N)nc3ccccc3c21)Cc1cccc(OCC(=O)OC(C)C)c1 [Example 103, Isopropyl 2-{3-[(N-{2-[4-amino-2-(2-methoxyethyl)-1H-imidazo[4,5-c]quinolin-1-yl]ethyl}-2-{diethylamino}acetamido)methyl]phenoxy}acetate]
< 5.00	CCOC(=O)C(C)(C)Oc1cccc(CN(CCn2c(CCOC)nc3c(N)nc4ccccc4c32)C(=O)CN(CC)CC)c1 [Example 106, Ethyl 2-{3-[(N-{2-[4-amino-2-(2-methoxyethyl)-1H-imidazo[4,5-c]quinolin-1-yl]ethyl}-2-{diethylamino}acetamido)methyl]phenoxy}-2-methylpropanoate]
< 5.00	CCN(CC)CC(=O)N(CCn1c(CCOC)nc2c(N)nc3ccccc3c21)Cc1cccc(OC(C)(C)C(=O)OC)c1 [Example 107, Methyl 2-{3-[(N-{2-[4-amino-2-(2-methoxyethyl)-1H-imidazo[4,5-c]quinolin-1-yl]ethyl}-2-{diethylamino}acetamido)methyl]phenoxy}-2-methylpropanoate]
6.89	COCCc1nc2c(N)nc3ccccc3c2n1CCCN(Cc1cccc(OCC(=O)OC2CCCC2)c1)C(=O)CN(C)C [Example 110, Cyclopentyl 2-{3-[(N-{3-[4-amino-2-(2-methoxyethyl)-1H-imidazo[4,5-c]quinolin-1-yl]propyl}-2-{dimethylamino}acetamido)methyl]phenoxy}acetate]
6.91	CCN(C)CC(=O)N(CCCn1c(CCOC)nc2c(N)nc3ccccc3c21)Cc1cccc(OCC(=O)OC2CCCC2)c1 [Example 111, Cyclopentyl 2-{3-[(N-{3-[4-amino-2-(2-methoxyethyl)-1H-imidazo[4,5-c]quinolin-1-yl]propyl}-2-{ethyl(methyl)amino}acetamido)methyl]phenoxy}acetate]
6.12	COCCc1nc2c(N)nc3ccccc3c2n1CCCN(Cc1cccc(OCC(=O)OC(C)C)c1)C(=O)CN1CCOCC1 [Example 112, Isopropyl 2-{3-[(N-{3-[4-amino-2-(2-methoxyethyl)-1H-imidazo[4,5-c]quinolin-1-yl]propyl}-2-morpholinoacetamido)methyl]phenoxy}acetate]
7.08	COCCc1nc2c(N)nc3ccccc3c2n1CCCN(Cc1cccc(OCC(=O)OC(C)C)c1)C(=O)CN(C)C [Example 113, Isopropyl 2-{3-[(N-{3-[4-amino-2-(2-methoxyethyl)-1H-imidazo[4,5-c]quinolin-1-yl]propyl}-2-{dimethylamino}acetamido)methyl]phenoxy}acetate]
7.17	CCN(C)CC(=O)N(CCCn1c(CCOC)nc2c(N)nc3ccccc3c21)Cc1cccc(OCC(=O)OC(C)C)c1 [Example 114, Isopropyl 2-{3-[(N-{3-[4-amino-2-(2-methoxyethyl)-1H-imidazo[4,5-c]quinolin-1-yl]propyl}-2-{ethyl(methyl)amino}acetamido]methyl)phenoxy}acetate]
6.76	COCCc1nc2c(N)nc3ccccc3c2n1CCCN(Cc1cccc(OCC(=O)OC(C)C)c1)C(=O)CN(C)CCOC [Example 115, Isopropyl 2-{3-[(N-{3-[4-amino-2-(2-methoxyethyl)-1H-imidazo[4,5-c]quinolin-1-yl]propyl}-2-{(2-methoxyethyl)(methyl)amino}acetamido)methyl]phenoxy}acetate]
7.11	CCN(CC)CC(=O)N(CCCn1c(CCOC)nc2c(N)nc3ccccc3c21)Cc1ccc(F)c(OCC(=O)OC(C)C)c1 [Example 118, Isopropyl 2-{5-[(N-{3-[4-amino-2-(2-methoxyethyl)-1H-imidazo[4,5-c]quinolin-1-yl]propyl}-2-{diethylamino}acetamido)methyl]-2-fluorophenoxy}acetate]
7.03	CCOC(=O)COc1cc(CN(CCCn2c(CCOC)nc3c(N)nc4ccccc4c32)C(=O)CN(CC)CC)ccc1F [Example 119, Ethyl 2-{5-[(N-{3-[4-amino-2-(2-methoxyethyl)-1H-imidazo[4,5-c]quinolin-1-yl]propyl}-2-{diethylamino}acetamido)methyl]-2-fluorophenoxy}acetate]
6.56	CCN(CC)CC(=O)N(CCCn1c(CCOC)nc2c(N)nc3ccccc3c21)Cc1ccc(F)c(OCC(=O)OC)c1 [Example 120, Methyl 2-{5-[(N-{3-[4-amino-2-(2-methoxyethyl)-1H-imidazo[4,5-c]quinolin-1-yl]propyl}-2-{diethylamino}acetamido)methyl]-2-fluorophenoxy}acetate]
7.30	CCN(CC)CC(=O)N(CCCn1c(CCOC)nc2c(N)nc3ccccc3c21)Cc1cc(F)cc(OCC(=O)OC(C)C)c1 [Example 123, Isopropyl 2-{3-[(N-{3-[4-amino-2-(2-methoxyethyl)-1H-imidazo[4,5-c]quinolin-1-yl]propyl}-2-{diethylamino}acetamido)methyl]-5-fluorophenoxy}acetate]
7.39	CCOC(=O)COc1cc(F)cc(CN(CCCn2c(CCOC)nc3c(N)nc4ccccc4c32)C(=O)CN(CC)CC)c1 [Example 124, Ethyl 2-{3-[(N-{3-[4-amino-2-(2-methoxyethyl)-1H-imidazo[4,5-c]quinolin-1-yl]propyl}-2-{diethylamino}acetamido)methyl]-5-fluorophenoxy}acetate]
